These results are taken from US8501734B2, “Medical intervention in haematological cancers” (Oncotyrol-Center for Personalized Cancer Medicine GmbH …, priority 2008, dated 2013).

In test [1] the test system is OPM2 cells. Briefly: Annexin V/PI apoptosis assay (FACS), OPM2 cells. Also on record: apoptosis induction: unit not given here. The format is cell-based.
For a further test, the system named is U266 cells. Kind of test: Annexin V/PI apoptosis assay (FACS), U266 cells. On apoptosis induction: key: 0 for no; + for low; ++: + indicates the range of apoptosis induction; +++: + indicates the range of apoptosis induction; ++++ for very strong apoptosis induction. The format is cell-based. More on the design: apoptosis induction: unit not given here. The conditions noted are these: for apoptosis induction: Imi 20 μg/ml alone.
Test [2] concerns OPM2 cells. Kind of test: PARP cleavage assay (Western blot), OPM2 cells. Type of test: cell-based. The conditions noted are these: 40 μg/ml. The method, then: Cells were lysed in lysis-IP-Buffer supplemented with protease inhibitors and sodium orthovanadate. 10 μg of lysate were separated by SDS-PAGE (10% polyacrylamide) and transferred to methanol activated Hypond-P PVDF-membranes (Amersham, Freiburg, Germany) by semi-dry blotting. Membranes were blocked in a 3% bovine serum albumin solution or 5% non fat dry milk solution in phosphate buffered saline (PBS) with 0.1% Tween 20 (PBT). Primary antibodies were applied in blocking solution for 1 h at room temperature or over night at 4° C. Membranes were washed in PBT and incubated with corresponding secondary antibodies in 5% non fat dry milk in PBT for 1 h at room temperature. Cells were washed with PBT, incubated with ECL solution and exposed in a Fluorchem 5500 (Biozym, Oldendorf, Germany).
OPM2 cells were suspended in full medium and cultured in 24-well plates at a cell density of 500.000 cells/ml and well. Cells were left untreated (control) or treated over night with different concentrations of Imiquimod® (10, 20 or 40 μg/ml).
OPM2 cells were cultured in 24-well plates as described above. Imiquimod® (40 μg/ml) was added to cells (except controls) for different time periods (2, 4, 6 and 8 h) and the extent of PARP1 cleavage, IRAK1, IkB-α and IkB-β degradation were determined by Western blot. α-Tubulin was used as a loading control.
In general terms: Immunoblotting shows a protein as a band on a membrane.

The next test deals with NCI cells. Briefly: Annexin V/PI apoptosis assay, NCI cells. The format is cell-based. The conditions noted are these: 40 μg/ml, 24 h. As to the method:
After treatment adherent cells were trypsinized (as described before), and resuspended in corresponding full medium. Suspension cells or trypsinized adherent cells, supernatant and washing solution (1×PBS from washing before trypsinization) were pooled and then spun down (300 g for 3 min) washed in 2 ml and resuspended in 1000 of annexin V binding buffer and mixed with 2 μg/ml annexin V-Allophycocyanin (APC) (BD-Pharmingen, San Diego, Calif., USA) and 50 ng/ml of propidium iodide (PI; Sigma Aldrich). At least 10.000 cells were measured per sample using a Becton Dickinson FACSCalibur flow Cytometer (San Jose, Calif., USA). Percentage of Annexin V negative and PI negative cells were depicted in the figures. […] Briefly, BMMCs were stained with a mixture of annexin V/FITC (Alexis Coorp., Laeufelfingen, Switzerland), propidium iodide (Sigma), anti-CD38-PE and anti-CD45-PC5 for 15 min at room temperature and immediately analyzed by flow cytometry. The percentages of viable cells (i.e. cells negative for annexin V/FITC and PI) within the MM (CD38^posCD45^low/absent) and non-MM fraction (CD38^neg/CD45^pos) were determined by flow cytometry.
Adherent cells were grown in 24-well plates to confluence and treated with 40 μg/ml Imiquimod® for 24 h. Cells were then trypsinized, suspended in full medium, stained for AnnexinV/PI and apoptosis was measured as described before. […]

The test system of test [3] is primary MM cells (CD38highCD45low). Kind of test: Annexin V/PI apoptosis assay, primary MM cells from patient bone marrow aspirates. The conditions noted are these: 40 μg/ml, 8 h or 24 h, time dependent. The format is cell-based, human. The method, then: (§1) For collection of primary multiple myeloma cells, bone marrow aspirates from iliac crests were collected during routine examinations after obtaining informed patient consent. Bone marrow mononuclear cells (BMMCs) were separated by density centrifugation. Fresh blood samples were diluted 1:1 with RPMI 1640 medium and layered over Biocoll separating solution (1.077 g/ml, Biochrom AG, Berlin; blood/RPMI1640/Biocoll; 1:1:1, v/v/v). Centrifugation was carried out for 20 min at 400 g. […] The percentage of multiple myeloma cells within the BMMCs was determined by flow cytometry. Briefly, 2×10^5 cells were stained for 15 min with fluorochrome-labelled antibodies to CD38 (phycoerythrin, PE) and CD45 (phycoerythrin-cyanin 5, PC5) (both from Beckman Coulter Inc., Fullerton, Calif., USA), washed with PBS and were immediately analyzed using the FC500 flow cytometer and the RXP1.0 software (Beckman Coulter). MM cells were detected by their high expression of CD38 and weak to absent expression of CD45.
(§2) After treatment adherent cells were trypsinized (as described before), and resuspended in corresponding full medium. […] At least 10.000 cells were measured per sample using a Becton Dickinson FACSCalibur flow Cytometer (San Jose, Calif., USA). […]

For test [4], the system named is non-tumor cells (CD38negCD45high). Kind of test: Annexin V/PI apoptosis assay, non-tumor fraction of patient BMMCs. Type of test: cell-based, human. The conditions noted are these: CD45high non-tumor cells, 40 μg/ml, 8 h or 24 h. As to the method:
as §1, §2

Test [5] relates to OPM2 cells. Briefly: Growth of OPM2 cells under multiple low doses (cell counting). The format is cell-based. As to the method:
2×10^5 OPM2 cells in 1 ml of full medium were cultured in 24-well plates in duplicates for 8 days. For the first three days the appropriate amount of Imiquimod® (1, 2, 5, 5, or 10 μg/ml) was added daily. For determination of absolute cell numbers 100 μl of cell suspension were taken on days 1-5 and day 8 and cell number was determined using the CASY Cell Counter Model DT (Schärfe System GmbH, Reutlingen, Germany). On the fourth day cells were spun down (200 g, 2 min) and 600 μl of the remaining 700 μl of supernatant (100 μl were left to keep cell pellet undisturbed) were removed and 600 μl of fresh full medium was added to the cell culture.

`CC(C)Cn1cnc2c(N)nc3ccccc3c21` [Imiquimod, 1-(2-methylpropyl)-1H-imidazo[4,5-c]quinolin-4-amine]: the apoptosis induction result in the test on OPM2 cells [1] (OPM2 cells, 24 h, Imi 20 μg/ml alone) was “+”; in the test with OPM2 cells [1] (OPM2 cells, 48 h, Imi 20 μg/ml alone), “++”; in the test with OPM2 cells [1] (multiple myeloma cells, 10 μg/ml, 24 h), “apoptosis induction”; in the test on U266 cells (24 h), “+”; in the test with U266 cells (48 h, listed as Imi), “+ and ++”; in test [3], “significantly induced apoptosis”. For the same compound, the apoptosis induction result in test [4] is reported as “induction of apoptosis”. Besides, in the test on OPM2 cells [1] (OPM2 cells, 24 h, Imiquimod 20 μg/ml or Akt inhibitor alone), the “apoptosis induction, single agent” value is listed as “some apoptosis”. Moreover, the “apoptosis induction in AnnexinV/PI FACS analysis assay” value with OPM2 cells [1] (multiple myeloma cells, 40 μg/ml) was 70%. Further, in the test on U266 cells (40 μg/ml, 24 h), the “cells dying upon treatment” value is given as “about 30%”. For the same compound, the PARP cleavage result in the test on OPM2 cells [2] (2 hours after application) was “some PARP cleavage”; in the test on OPM2 cells [2] (after 6 hours), “nearly complete PARP cleavage”. Besides, the “apoptosis induction in PARP cleavage assay” value with OPM2 cells [2] (6 h to 8 h after application) turned out to be 100%. Further, the “onset of apoptosis induction” value with OPM2 cells [2] (multiple myeloma cells) amounted to 2 h. In the test with NCI cells, the apoptotic cells is reported as 90%. Also, the cell growth inhibition entry in the test on OPM2 cells [5] (3-times given dose of 10 μg/ml) was “sufficient to irreversibly inhibit cell growth”; in the test on OPM2 cells [5] (triple treatment with 5 μg/ml), “sufficient to significantly block the growth potential”.
